Assays:
[1] = Dissociation constant to estimate the calcium binding to the compound at the ratio of 2:1
[2] = Dissociation constant to estimate the calcium binding to the compound at the ratio of 1:1

K2 [1]: 26 µM
K1 [2]: 100 µM
SMILES: COC(=O)C1=C(C)NC(C)=C(C(=O)OCCN(C)Cc2ccccc2)C1c1cccc([N+](=O)[O-])c1 (configuration not stated)

— ChEMBL document CHEMBL1127296, “Interaction of calcium channel antagonists with calcium: structural studies on nicardipine and its Ca2+ complex” (J Med Chem, 1994)
